This note sets out measurements from BindingDB's records for doi:10.1016/j.bmcl.2009.03.071 (Wyeth Research, 2009).

Holding throughout (assay): Radioligand Binding Assay (Ki)
Conditions in all cases: pH 7.4; 22 °C

Test [1] concerns the target D(2) dopamine receptor (Homo sapiens, UniProt P14416). The protocol:
(§1) Competition experiments were performed in the presence radioligand with membrane protein (obtained from cells expressing the receptor) and test compounds. The mixture was incubated at room temperature for 60 min and the reaction stopped by rapid filtration onto a 96-well GF/B filter using a Packard Filtermate harvester. Radioactivity retained on the filters was measured by liquid scintillation in a Packard TopCount. IC50 values for test compounds were determined from nonlinear regression analysis of data collected from ligand binding experiments. The inhibition constant (Ki) was calculated from IC50 value by the Cheng and Prusoff equation.

In test [2] the target is T1, 5-hydroxytryptamine receptor 1A (Homo sapiens, UniProt P08908).
T1 sequence (P08908 whole entry): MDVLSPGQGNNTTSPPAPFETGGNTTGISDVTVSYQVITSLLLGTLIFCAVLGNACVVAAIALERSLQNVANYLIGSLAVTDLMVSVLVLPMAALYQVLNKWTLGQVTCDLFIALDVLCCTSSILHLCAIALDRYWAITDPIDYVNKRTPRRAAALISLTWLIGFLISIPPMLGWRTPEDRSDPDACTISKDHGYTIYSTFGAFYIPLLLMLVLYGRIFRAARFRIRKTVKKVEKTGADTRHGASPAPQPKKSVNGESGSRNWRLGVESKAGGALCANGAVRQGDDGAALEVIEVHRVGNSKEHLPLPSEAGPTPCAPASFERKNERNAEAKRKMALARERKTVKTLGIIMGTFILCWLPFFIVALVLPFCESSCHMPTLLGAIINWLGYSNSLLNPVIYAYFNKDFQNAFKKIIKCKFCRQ
The procedure:
as §1

The target in test [3] is 5-hydroxytryptamine receptor 2B (Homo sapiens, UniProt P41595). The protocol: as §1
Sequence of 5-hydroxytryptamine receptor 2B (P41595 whole entry): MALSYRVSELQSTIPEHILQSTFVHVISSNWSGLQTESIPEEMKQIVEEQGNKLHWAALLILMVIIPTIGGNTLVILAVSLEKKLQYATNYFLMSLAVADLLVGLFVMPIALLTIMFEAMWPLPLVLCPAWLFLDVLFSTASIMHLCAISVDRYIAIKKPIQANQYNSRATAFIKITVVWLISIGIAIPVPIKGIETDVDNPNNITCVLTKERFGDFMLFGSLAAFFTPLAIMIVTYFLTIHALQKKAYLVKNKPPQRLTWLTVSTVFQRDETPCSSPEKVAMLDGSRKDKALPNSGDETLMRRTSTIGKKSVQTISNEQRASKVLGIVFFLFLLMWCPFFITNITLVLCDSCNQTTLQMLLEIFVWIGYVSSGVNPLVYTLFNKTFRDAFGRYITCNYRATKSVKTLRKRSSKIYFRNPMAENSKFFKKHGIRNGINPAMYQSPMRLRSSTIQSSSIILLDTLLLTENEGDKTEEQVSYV
Test [4] addresses 5-hydroxytryptamine receptor 1D (Homo sapiens, UniProt P28221). The procedure: as §1
Test [5] concerns the target 5-hydroxytryptamine receptor 1B (Homo sapiens, UniProt P28222). The protocol: as §1
Test [6] deals with 5-hydroxytryptamine receptor 7 (Homo sapiens, UniProt P34969). The protocol:
as §1

Test [7] addresses T2, 5-hydroxytryptamine receptor 2C (Homo sapiens, UniProt P28335).
T2 sequence (P28335 whole entry): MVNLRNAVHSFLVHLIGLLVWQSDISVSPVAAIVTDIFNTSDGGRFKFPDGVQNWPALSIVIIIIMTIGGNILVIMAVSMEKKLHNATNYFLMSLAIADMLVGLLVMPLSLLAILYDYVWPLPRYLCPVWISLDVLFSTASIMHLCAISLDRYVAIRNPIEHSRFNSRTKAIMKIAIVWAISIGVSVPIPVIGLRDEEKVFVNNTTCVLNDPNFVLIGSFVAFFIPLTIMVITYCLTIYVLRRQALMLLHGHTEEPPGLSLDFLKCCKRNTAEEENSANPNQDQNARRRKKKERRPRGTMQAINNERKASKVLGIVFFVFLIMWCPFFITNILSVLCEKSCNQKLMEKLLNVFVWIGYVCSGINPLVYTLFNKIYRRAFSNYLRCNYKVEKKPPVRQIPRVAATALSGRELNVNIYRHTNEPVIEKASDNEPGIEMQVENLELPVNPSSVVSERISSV
The protocol: as §1

Sequence of D(2) dopamine receptor (P14416 whole entry): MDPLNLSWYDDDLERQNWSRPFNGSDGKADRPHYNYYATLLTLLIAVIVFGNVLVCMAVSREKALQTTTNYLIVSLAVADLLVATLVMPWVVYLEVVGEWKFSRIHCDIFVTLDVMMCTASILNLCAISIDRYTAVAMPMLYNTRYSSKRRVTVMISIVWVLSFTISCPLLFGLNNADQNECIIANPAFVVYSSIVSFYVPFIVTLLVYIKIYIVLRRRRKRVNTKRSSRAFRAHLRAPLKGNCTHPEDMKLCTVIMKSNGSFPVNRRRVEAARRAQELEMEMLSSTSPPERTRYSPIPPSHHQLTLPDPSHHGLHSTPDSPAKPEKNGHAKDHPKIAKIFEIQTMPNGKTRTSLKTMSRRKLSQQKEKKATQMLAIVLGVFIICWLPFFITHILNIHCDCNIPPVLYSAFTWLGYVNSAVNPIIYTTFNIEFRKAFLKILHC
Sequence of 5-hydroxytryptamine receptor 1D (P28221 whole entry): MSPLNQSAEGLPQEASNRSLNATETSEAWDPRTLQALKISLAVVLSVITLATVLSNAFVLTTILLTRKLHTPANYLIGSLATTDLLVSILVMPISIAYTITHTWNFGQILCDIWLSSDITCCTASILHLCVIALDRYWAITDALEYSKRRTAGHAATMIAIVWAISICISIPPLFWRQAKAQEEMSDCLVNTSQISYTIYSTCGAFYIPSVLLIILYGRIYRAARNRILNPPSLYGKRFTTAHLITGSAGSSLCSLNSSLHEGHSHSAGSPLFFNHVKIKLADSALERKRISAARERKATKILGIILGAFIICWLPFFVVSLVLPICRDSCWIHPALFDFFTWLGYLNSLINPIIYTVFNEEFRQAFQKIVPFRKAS
Sequence of 5-hydroxytryptamine receptor 7 (P34969 whole entry): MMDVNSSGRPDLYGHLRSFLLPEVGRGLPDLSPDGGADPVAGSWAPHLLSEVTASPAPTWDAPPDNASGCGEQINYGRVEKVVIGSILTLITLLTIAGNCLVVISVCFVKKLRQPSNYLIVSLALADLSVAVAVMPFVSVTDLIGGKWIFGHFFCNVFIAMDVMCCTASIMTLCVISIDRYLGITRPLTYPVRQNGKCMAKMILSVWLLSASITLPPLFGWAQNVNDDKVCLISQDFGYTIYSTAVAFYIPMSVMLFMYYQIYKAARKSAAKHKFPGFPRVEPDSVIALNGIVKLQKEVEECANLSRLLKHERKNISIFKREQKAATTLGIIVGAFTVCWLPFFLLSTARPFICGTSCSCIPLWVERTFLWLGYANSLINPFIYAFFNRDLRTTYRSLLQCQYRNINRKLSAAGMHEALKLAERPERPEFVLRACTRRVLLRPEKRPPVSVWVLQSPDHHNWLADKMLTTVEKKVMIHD
Sequence of 5-hydroxytryptamine receptor 1B (P28222 whole entry): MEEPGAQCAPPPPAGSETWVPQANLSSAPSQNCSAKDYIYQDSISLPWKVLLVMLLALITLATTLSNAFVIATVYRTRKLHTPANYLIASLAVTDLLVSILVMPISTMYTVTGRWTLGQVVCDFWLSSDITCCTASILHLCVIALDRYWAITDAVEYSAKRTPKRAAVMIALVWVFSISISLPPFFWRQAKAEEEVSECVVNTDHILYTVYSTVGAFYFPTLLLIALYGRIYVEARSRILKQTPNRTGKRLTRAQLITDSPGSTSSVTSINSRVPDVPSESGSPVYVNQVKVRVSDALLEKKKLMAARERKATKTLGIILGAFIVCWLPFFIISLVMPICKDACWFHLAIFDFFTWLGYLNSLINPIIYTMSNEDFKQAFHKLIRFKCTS

The term Ki denotes a measure of affinity in units of concentration, obtained from inhibition or displacement. Take `NCCC(=O)Nc1ccc2cnn(S(=O)(=O)c3cccc4ccccc34)c2c1` [3-amino-N-[1-(naphthalene-1-sulfonyl)-1H-indazol-6-yl]propanamide]: the Ki in test [1] is above 2000 nM; in test [2], 6400 nM; in test [3], 155 nM; in test [4] it was above 2000 nM; in test [5], above 2000 nM; in test [6], 5100 nM. This compound also returned a Ki in test [7] above 2000 nM.
